In patent US20250091982A1, “Pharmaceutical Composition, Methods of Use Thereof for Treating Cocaine Addiction, and Novel Use of Hausp K444R Point Mutant Mouse” (PHARWAR BIOTECHNOLOGY, INC. PTE. LTD., priority 2022, published 2025):

Key:
[1] = system: heart rate and blood pressure induced by cocaine; experiment: Heart rate and blood pressure of cocaine induced mice; assay type: in vivo, C57BL/6JNar1 mice; settings: cocaine 25 mg/kg/day i.p. three months, then compound 25 mg/kg/day three months; FIG. 15
Procedure: (§1) C57BL/6JNar1 mice of 6-months age were used in this Experiment. This Experiment included four groups: the normal control group (saline group), the cocaine+saline group, the cocaine+Compound 2-2 group, and the cocaine+Compound 3-3 group. There were 7 mice in the cocaine+Compound 2-2 group and 6 mice each in the rest of the groups. The normal control group received no experimental treatment. […] Heart rate, systolic blood pressure and mean blood pressure of all four groups were measured with a device (MK-2000ST, NP-NIBP Monitor for Mice & Rats, Muromachi, Japan) and the results thereof were shown in FIG. 15. Moreover, the Fr structure of all four groups was measured according to the method of Experiment 7 and the results thereof were shown in FIG. 16 and FIGS. 17A and 17B.

[2] = system: cocaine conditioned place preference; experiment: Conditioned place preference (CPP) test induced by cocaine; assay type: in vivo, mice; settings: compound 10 mg/kg 10 mins before cocaine 25 mg/kg i.p.; FIG. 12D
From the text: (§2) Conditioned place preference (CPP) is a classical conditioning paradigm used in behavioral neuroscience to study the rewarding and aversive properties of drugs or other stimuli. It involves associating a particular environment or location with the experience of a rewarding or aversive stimulus, such as drugs, food, or electric shock. In CPP experiment, mice were first trained to associate one compartment of a box and then, they were placed in the neutral compartment and allowed to freely explore both compartments, and animals' preference for one compartment over the other was measured. After vehicle/Compound 2-2 (10 mg/kg)/Compound 2-3 (10 mg/kg)/Compound 3-3 (10 mg/kg) treatment for 10 mins, the well-trained mice were administrated with cocaine (25 mg/kg, i.p.) for 30 mins. The content of the vehicle is 0.5% DMSO, 25% PEG-300, 4% Tween-80, and 70.5% saline. The locomotion activity experiment was the same as the method of open field test described in Experiment 2.

[3] = system: Fasciculus retroflexus (Fr) structure; experiment: Fr structure of cocaine induced mice after treatment; assay type: in vivo, C57BL/6JNar1 mice; settings: cocaine 25 mg/kg/day i.p. three months, then compound 25 mg/kg/day three months; for length of Fr diminished by cocaine treatment: FIG. 16, 17A; for volume of Fr diminished by cocaine treatment: FIG. 16, 17B
Procedure: as §1

[4] = system: lever press induced by cocaine; experiment: Lever press test (cocaine self-administration); assay type: in vivo, mice; settings: 10 mg/kg intraperitoneally 10 min prior to cocaine self-administration; for cumulative cocaine reinforcements: FIG. 13G; for latency to first response in mice treated with cocaine: FIG. 13H; for lever press frequencies induced by cocaine treatment: FIGS. 13A to 13F
Procedure: Mice were anesthetized with isoflurane (induction and maintenance at 4%-5%) for surgical implantation of a jugular vein catheter connected to a head-mounted entry port. Briefly, the right jugular vein was exposed, and the catheter tubing was inserted and secured to the vein. The catheter was passed under the skin to an incision on the head, and the port was secured to the skull with dental cement anchored by screws. Mice were given buprenorphine (0.05-0.10 mg/kg, intraperitoneal.) for analgesia and allowed to recover for 7-10 days before beginning self-administration. Catheter patency was maintained by daily infusion of 100 μl heparin (120 U/μl) through the catheter and treated with Cefazolin, 200 mg/kg, subcutaneously, to prevent bacterial infections.
The lever press test was done in extra wide mouse operant chambers with a modified top (Med Associates, VT, USA). The chamber contained a retractable lever, a food pellet receptacle connected to a pellet dispenser, with a stimulus light above the pellet receptacle, and contained a house light. Cocaine was delivered by a syringe pump located outside the chamber, and the drug delivery tubing was connected to the mice through a swivel (Instech, Plymouth Meeting, PA, USA) and the swivel arm connected on top of the chamber to allow free movement of the mice during self-administration. All the sessions were remotely operated and recorded by MED-PC V software (Med Associates, VT, USA). Mice were pre-trained with food through pressing the levers and were food-restricted during the study. After training, mice were provided ad libitum access to water and food.
Self-administration sessions took place once daily during the light-dark cycle for 14 consecutive days. Before starting the study, mice were allowed to acclimate to the housing for approximately 3 days. The availability of cocaine reward was indicated by illumination of the house light and pressing levers. […] Each infusion was paired with a cue (1 s illumination of the stimulus green light) followed by a 10-second time-out signaled by turning off the house light. […] Each chamber was operated under a 3-hour session, or until mice received 100 infusions (20 mg/kg) of cocaine (to prevent cocaine overdose). No treatment groups were implanted with a catheter and placed in the operant chambers with identical cues but not connected to the syringe pump and received no reward for pressing the active levers. Vehicle or inhibitor (Compound 2-2, Compound 2-3, or Compound 3-3) with a dosage of 10 mg/kg was injected intraperitoneally for 10 min prior to cocaine self-administration. The content of the vehicle is 0.5% DMSO, 25% PEG-300, 4% Tween-80, and 70.5% saline. Mice met criteria for acquisition of self-administration when they: (1) self-administered at least 30 infusions in a session; (2) >85% of responses were on the active […]; and (3) had no more than 20% variation in number of infusions between sessions. The lever press frequency and number within 3 hours indicate the cocaine addiction symptom.

[5] = target: T1, SIAH1 (Homo sapiens, UniProt Q8IUQ4); experiment: E3-ligase auto ubiquitination assay (K48-linked polyubiquitination of HAUSP mediated by SIAH1); assay type: biochemical; settings: 37° C., 1 hour, Western blot with Ub-K48 antibody, compared to vehicle; FIG. 14A, 14B
T1 sequence (Q8IUQ4 1-282): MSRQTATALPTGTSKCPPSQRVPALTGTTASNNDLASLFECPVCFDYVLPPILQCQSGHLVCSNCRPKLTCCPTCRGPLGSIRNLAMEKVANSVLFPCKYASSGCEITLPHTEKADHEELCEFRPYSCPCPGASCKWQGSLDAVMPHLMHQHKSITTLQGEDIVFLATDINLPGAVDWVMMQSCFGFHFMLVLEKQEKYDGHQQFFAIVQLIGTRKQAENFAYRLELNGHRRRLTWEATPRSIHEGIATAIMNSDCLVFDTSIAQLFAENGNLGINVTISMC
Procedure: SIAH1 mediates the K48-linked polyubiquitination of HAUSP. Therefore, for the ubiquitination assay, SIAH1 was incubated in the solution (0.25 mg/1 ml, total 100 μg) containing 20 mM Tris-HCl buffer (pH 8.0), 100 mM NaCl, 1 mM DTT and 40% glycerol and HAUSP (50 μg) was in 50 mM HEPES pH 7.5, 100 mM NaCl, 1 mM TCEP (tris (2-carboxyethyl) phosphine) buffer. […] The E3-ligase auto ubiquitination assay was performed by E3 Ligase Auto-Ubiquitilylation Assay Kit (Abcam, ab139469, UK).

[6] = system: HAUSP levels in SH-SY5Y cells; experiment: Western blot of HAUSP in cocaine-treated SH-SY5Y cells; settings: cocaine 200 μM with inhibitor, 24 hr; for HAUSP levels decreased by cocaine in SH-SY5Y cells (western blot): FIG. 14C; for relative protein expression ratios of HAUSP normalized with β-actin: quantified with ImageJ, FIG. 14D
[7] = system: locomotion activity induced by cocaine; experiment: Locomotion activity (open field test) of cocaine induced mice; assay type: in vivo; settings: compound 10 mg/kg 10 mins before cocaine 25 mg/kg i.p.; FIGS. 12A to 12C
From the text: 8 mice from Preparation Example 2 were randomly chosen to conduct Locomotion Activity I. The open fields using white acrylic chambers measured 50 cm (length)×50 cm (width)×38 cm (height) were made from white high density and non-porous plastics. Once the Video Tracking software (ANY-maze, Stoelting Co, IL, USA) was opened, the cursor was moved to the “Single-Subject Tracking” option located under the “Data Acquisition” tab and single-clicked to open this option. The software package used in this protocol allows the tracking of up to 6 individual mice at one time. The mice were brought to open fields to acclimate to the procedure room for 30 minutes (min) prior to starting the test. The tracking plot of randomly chosen 6 mice was recorded and analyzed by ANY-maze software.
as §2

[8] = system: Fasciculus retroflexus (Fr) structure; experiment: Mouse brain analysis: Fr structure after cocaine treatment; settings: wild-type mice, cocaine 25 mg/kg/day for three months, compared to control wild-type mice
Procedure: Cocaine treated mice were C57BL/6j mice treated with cocaine at 10 a.m. with a dosage of 25 mg/kg/day for three months while the control mice (Hausp^WT) and Hausp^K444R mice were treated with saline. All mice were housed under conditions of controlled humidity (55±10%) and temperature (22±2° C.), with a reversed light cycle in this experiment.
After the above treatments, all organs were obtained after mouse heart perfusion by saline, and fixed by 4% paraformaldehyde solution for 24 h for H&E, LFB, Silver, Masson's trichrome staining and immunohistochemistry (IHC). Fresh tissues were immediately homogenized in T-PER™ by tissue homogenizer (HT mini homogenizer, OPS Diagnostics LLC, USA) for Western blot analysis.
Mouse brains were processed following SHIELD processing protocol according to Park, Y. G. et al. 2019. Mice were perfused with ice-cold PBS and then with the SHIELD perfusion solution (ice-cold 1× PBS containing 4% (w/v) PFA and GE38 (polyglycerol 3-polyglycidyl ether) supernatant). Collected brains were incubated in the same perfusion solution at 4° C. for two days. […] Images were reconstructed to a multi-channel-z stack using Imaris file converter, and the regions of the whole brain, habenula region were masked and quantified using the surface function in Imaris software version 9.5.

| SMILES | blood pressure induced by cocaine [1] | heart rate induced by cocaine [1] | time spent in cocaine paired compartments (CPP test) [2] | length of Fr diminished by cocaine treatment [3] | volume of Fr diminished by cocaine treatment [3] | cumulative cocaine reinforcements [4] | latency to first response in mice treated with cocaine [4] | lever press frequencies induced by cocaine treatment [4] | inhibition of K48-linked polyubiquitination of HAUSP mediated by SIAH1 [5] | HAUSP levels decreased by cocaine in SH-SY5Y cells (western blot) [6] | relative protein expression ratios of HAUSP normalized with β-actin [6] | increased locomotion activity or increased distance traveled induced by cocaine treatment [7] | diameter of Fr ([8]; FIG. 10D) | length of Fr ([8]; FIG. 10E) |
| --- | --- | --- | --- | --- | --- | --- | --- | --- | --- | --- | --- | --- | --- | --- |
| COCCNC(=O)c1ccc(Cl)cc1NC(=O)c1ccccc1C [Compound 2-2, 4-Chloro-N-(2-methoxyethyl)-2-(2-methylbenzamido) benzamide] | decreased | decreased | decreased | partially rescued | partially rescued | decreased | increased | decreased | can inhibit | can restore | can restore | decreased | – | – |
| COCCNC(=O)c1ccccc1NC(=O)c1c(C)cc(C)cc1C [Compound 3-3, N-(2-((2-Methoxyethyl)carbamoyl)phenyl)-2,4,6-trimethylbenzamide] | decreased | decreased | decreased | partially rescued | partially rescued | decreased | increased | decreased | can inhibit | can restore | can restore | decreased | – | – |
| COC(=O)[C@H]1[C@@H](OC(=O)c2ccccc2)C[C@@H]2CC[C@H]1N2C [cocaine] | – | – | – | – | – | – | – | – | – | – | – | – | decreased | decreased |
